Data as given in EPA's CvTdb concentration-time database.

Legend:
Rat [1] = experiment: concentration in plasma after dosing; conditions: 2.5 min; dosed: Wyeth-14643; 2.0 mg/kg; iv; Male; Sprague-Dawley
Rat [2] = experiment: concentration in plasma after dosing; conditions: dosed: Wyeth-14643, 2.0 mg/kg, iv, Male, Sprague-Dawley
Rat [3] = experiment: concentration in liver after dosing; conditions: 40 min; dosed: Bis 2-Chloroethoxy Methane; 20 mg/kg; iv; Female; F344
Rat [4] = experiment: concentration in plasma after dosing; conditions: 4 h; dosed: Bis 2-Chloroethoxy Methane; 40 mg/kg; iv; Male; Harlan Sprague Dawley
Rat [5] = experiment: concentration in plasma after dosing; conditions: 2 h; dosed: Bis 2-Chloroethoxy Methane; 40 mg/kg; iv; Male; Harlan Sprague Dawley
Rat [6] = experiment: concentration in heart after dosing; conditions: 5 h; dosed: Bis 2-Chloroethoxy Methane; 20 mg/kg; iv; Male; F344
Rat [7] = experiment: concentration in thymus after dosing; conditions: 20 min; dosed: Bis 2-Chloroethoxy Methane; 20 mg/kg; iv; Female; F344
Rat [8] = experiment: concentration in thymus after dosing; conditions: 3 h; dosed: Bis 2-Chloroethoxy Methane; 20 mg/kg; iv; Female; F344
Rat [9] = experiment: concentration in liver after dosing; conditions: 20 min; dosed: Bis 2-Chloroethoxy Methane; 20 mg/kg; iv; Male; F344
Rat [10] = experiment: concentration in heart after dosing; conditions: 4 h; dosed: Bis 2-Chloroethoxy Methane; 20 mg/kg; iv; Female; F344
Rat [11] = experiment: concentration in kidney after dosing; conditions: 6 h; dosed: Fluorotelomer alcohol 8+2; 80 mg/kg; oral; Female; Harlan Sprague Dawley
Rat [12] = experiment: concentration in kidney after dosing; conditions: 3 h; dosed: Fluorotelomer alcohol 8+2; 80 mg/kg; oral; Female; Harlan Sprague Dawley
Rat [13] = experiment: concentration in plasma after dosing; conditions: 6 h; dosed: Di-n-butyl phthalate; 100 mg/kg; oral; Male; Sprague-Dawley
Rat [14] = experiment: concentration in plasma after dosing; conditions: 10 min; dosed: Di-n-butyl phthalate; 20 mg/kg; iv; Male; Sprague-Dawley
Rat [15] = experiment: concentration in plasma after dosing; conditions: 6 h; dosed: Di-n-butyl phthalate; 50 mg/kg; oral; Male; Sprague-Dawley
Rat [16] = experiment: concentration in plasma after dosing; conditions: 10 h; dosed: Di-n-butyl phthalate; 50 mg/kg; oral; Male; Sprague-Dawley
Rat [17] = experiment: concentration in plasma after dosing; conditions: 1 h; dosed: Di-n-butyl phthalate; 50 mg/kg; oral; Male; Sprague-Dawley
Rat [18] = experiment: concentration in plasma after dosing; conditions: dosed: Perfluorodecanoic acid, 2 mg/kg, iv, Male, F344
Rat [19] = experiment: concentration in plasma after dosing; conditions: dosed: Perfluorodecanoic acid, 2 mg/kg, iv, Male, F344; remark: listed apart in the source
Rat [20] = experiment: concentration in brain after dosing; conditions: 864 h; dosed: Perfluorodecanoic acid; 10 mg/kg; oral; Male; Harlan Sprague Dawley
Rat [21] = experiment: concentration in liver after dosing; conditions: 1 h; dosed: Perfluorodecanoic acid; 10 mg/kg; oral; Female; Harlan Sprague Dawley
Rat [22] = experiment: concentration in plasma after dosing; conditions: dosed: Perfluorodecanoic acid, 2 mg/kg, iv, Male, F344; remark: listed apart in the source
Rat [23] = experiment: concentration in kidney after dosing; conditions: 864 h; dosed: Perfluorodecanoic acid; 10 mg/kg; oral; Male; Harlan Sprague Dawley
Rat [24] = experiment: concentration in plasma after dosing; conditions: 9 h; dosed: Primidone; 30 mg/kg; oral; Male; F344
Rat [25] = experiment: concentration in plasma after dosing; conditions: 22 h; dosed: Primidone; 30 mg/kg; oral; Male; F344
Rat [26] = experiment: concentration in plasma after dosing; conditions: 9 h; dosed: Primidone; 80 mg/kg; oral; Female; F344
Rat [27] = experiment: concentration in heart after dosing; conditions: 4 h; dosed: Thiodiglycolic Acid; 20 mg/kg; iv; Male; Harlan Sprague Dawley
Rat [28] = experiment: concentration in liver after dosing; conditions: 3 h; dosed: Thiodiglycolic Acid; 20 mg/kg; iv; Male; Harlan Sprague Dawley
Rat [29] = experiment: concentration in heart after dosing; conditions: 10 min; dosed: Thiodiglycolic Acid; 20 mg/kg; iv; Female; Harlan Sprague Dawley
Rat [30] = experiment: concentration in thymus after dosing; conditions: 20 min; dosed: Thiodiglycolic Acid; 20 mg/kg; iv; Female; F344
Rat [31] = experiment: concentration in thymus after dosing; conditions: 1 h; dosed: Thiodiglycolic Acid; 20 mg/kg; iv; Male; Harlan Sprague Dawley
Rat [32] = experiment: concentration in liver after dosing; conditions: 3 h; dosed: Thiodiglycolic Acid; 20 mg/kg; iv; Female; Harlan Sprague Dawley
Rat [33] = experiment: concentration in plasma after dosing; conditions: 2 h; dosed: Thiodiglycolic Acid; 20 mg/kg; iv; Male; Harlan Sprague Dawley
Rat [34] = experiment: concentration in plasma after dosing; conditions: 20 min; dosed: Thiodiglycolic Acid; 20 mg/kg; iv; Female; F344
Rat [35] = experiment: concentration in thymus after dosing; conditions: 10 min; dosed: Thiodiglycolic Acid; 20 mg/kg; iv; Male; F344
Rat [36] = experiment: concentration in plasma after dosing; conditions: 0.25 h; dosed: dichloroacetic acid; 10 mg/kg; oral; Male; Harlan Sprague Dawley
Rat [37] = experiment: concentration in plasma after dosing; conditions: 2 min; dosed: dichloroacetic acid; 10 mg/kg; iv; Male; F344
Rat [38] = experiment: concentration in plasma after dosing; conditions: dosed: dichloroacetic acid, 40 mg/kg, oral, Female, Harlan Sprague Dawley
Rat [39] = experiment: concentration in plasma after dosing; conditions: dosed: dichloroacetic acid, 100 mg/kg, oral, Male, F344

`Cc1cccc(Nc2cc(Cl)nc(SCC(=O)O)n2)c1C` showed a concentration in plasma (Rat [1]) of 30.5 µg/mL, a concentration in plasma (Rat [2]; 5 min) of 1.06 µg/mL and a concentration in plasma (Rat [2]; 4 h) of 0.477 µg/mL.
In the case of `ClCCOCOCCCl` [Bis 2-Chloroethoxy Methane], the concentration in liver (Rat [3]) was 636 ng/g, the concentration in plasma (Rat [4]) was 0.162 µg/mL and the concentration in plasma (Rat [5]) was 1.29 µg/mL. It also gave a concentration in heart (Rat [6]) of 42.1 ng/g, a concentration in thymus (Rat [7]) of 16300 ng/g and a concentration in thymus (Rat [8]) of 448 ng/g. It also gave a concentration in liver (Rat [9]) of 3030 ng/g and a concentration in heart (Rat [10]) of 46.5 ng/g.
`OCCC(F)(F)C(F)(F)C(F)(F)C(F)(F)C(F)(F)C(F)(F)C(F)(F)C(F)(F)F` [Fluorotelomer alcohol 8+2] was tested, and the concentration in kidney (Rat [11]) was 905 ng/g and the concentration in kidney (Rat [12]) was 4360 ng/g.
Molecule `CCCCOC(=O)c1ccccc1C(=O)O` [Mono-n-butyl phthalate] has a concentration in plasma (Rat [13]) of 16.9 µg/mL, a concentration in plasma (Rat [14]) of 31.2 µg/mL and a concentration in plasma (Rat [15]) of 1.89 µg/mL. The concentration in plasma (Rat [16]) was 1.17 µg/mL and the concentration in plasma (Rat [17]) was 8.65 µg/mL.
`O=C(O)C(F)(F)C(F)(F)C(F)(F)C(F)(F)C(F)(F)C(F)(F)C(F)(F)C(F)(F)C(F)(F)F` [Perfluorodecanoic acid] gave a concentration in plasma (Rat [18]; 6 h) of 5.6 µg/mL, a concentration in plasma (Rat [18]; 864 h) of 2.69 µg/mL and a concentration in plasma (Rat [19]; 24 h) of 5.55 µg/mL. It also gave a concentration in plasma (Rat [19]; 1848 h) of 0.488 µg/mL, a concentration in brain (Rat [20]) of 917 ng/g and a concentration in liver (Rat [21]) of 48900 ng/g. It also gave a concentration in plasma (Rat [22]; 24 h) of 5.51 µg/mL, a concentration in plasma (Rat [22]; 1848 h) of 0.41 µg/mL and a concentration in kidney (Rat [23]) of 6720 ng/g.
Molecule `CCC1(c2ccccc2)C(=O)NC(=O)NC1=O` [Phenobarbital] has a concentration in plasma (Rat [24]) of 2.93 µg/mL, a concentration in plasma (Rat [25]) of 1.03 µg/mL and a concentration in plasma (Rat [26]) of 2.37 µg/mL.
Molecule `O=C(O)CSCC(=O)O` [Thiodiglycolic Acid] has a concentration in heart (Rat [27]) of 527 ng/g, a concentration in liver (Rat [28]) of 59900 ng/g and a concentration in heart (Rat [29]) of 8770 ng/g. It also gave a concentration in thymus (Rat [30]) of 4680 ng/g, a concentration in thymus (Rat [31]) of 1900 ng/g and a concentration in liver (Rat [32]) of 94200 ng/g. It also gave a concentration in plasma (Rat [33]) of 0.79 µg/mL, a concentration in plasma (Rat [34]) of 7.41 µg/mL and a concentration in thymus (Rat [35]) of 9340 ng/g.
`O=C(O)C(Cl)Cl` [dichloroacetic acid] gave a concentration in plasma (Rat [36]) of 0.908 µg/mL, a concentration in plasma (Rat [37]) of 30.4 µg/mL and a concentration in plasma (Rat [38]; 5 min) of 4.33 µg/mL. The concentration in plasma (Rat [38]; 1.25 h) was 5.69 µg/mL, the concentration in plasma (Rat [39]; 10 min) was 11.9 µg/mL and the concentration in plasma (Rat [39]; 4 h) was 55.6 µg/mL.
